{"source": "PubChem BioAssay (NCI)", "experiment_in_all_cases": "NCI-60 cell line screen, 48 h", "key": {"[1]": {"test_system": "HS 578T breast"}, "[2]": {"test_system": "IGROV1 ovarian"}, "[3]": {"test_system": "K-562 leukemia"}, "[4]": {"test_system": "MDA-MB-231 breast"}, "[5]": {"test_system": "NCI/ADR-RES ovarian"}, "[6]": {"test_system": "OVCAR-4 ovarian"}, "[7]": {"test_system": "SK-MEL-28 melanoma"}, "[8]": {"test_system": "SR leukemia"}, "[9]": {"test_system": "A549 NSCLC"}, "[10]": {"test_system": "SF-268 CNS"}}, "note": "Several values for one entry are separate records, joined by “and”; a condition that tells them apart may be missing. Identical values can stand only once.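 The compound was tested at five concentrations on cells cultured in 96-well plates, with a 48-hour exposure period. The concentration for 50% growth inhibition is given as GI50. TGI: total growth inhibition.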", "data": [{"smiles": "CO/C(=N\\N=C(/c1ccccc1)C(F)(F)F)c1ccncc1", "values": [{"measurement": "TGI", "setting": "[1]", "result": "> 100", "unit": "µM"}, {"measurement": "TGI", "setting": "[2]", "result": "> 100", "unit": "µM"}, {"measurement": "TGI", "setting": "[3]", "result": "> 100", "unit": "µM"}, {"measurement": "TGI", "setting": "[4]", "result": "> 100", "unit": "µM"}, {"measurement": "TGI", "setting": "[5]", "result": 71.6, "unit": "µM"}, {"measurement": "TGI", "setting": "[6]", "result": "> 100", "unit": "µM"}, {"measurement": "TGI", "setting": "[7]", "result": "> 100", "unit": "µM"}, {"measurement": "TGI", "setting": "[8]", "result": "> 100", "unit": "µM"}]}, {"smiles": "COC(=O)[C@]1(C)[C@H]2C[C@H]3O[C@H]4[C@H](O)[C@@H](O)OC(CC(O)C(C5=CC(=O)OC5)C(C5=CC(=O)OC5)C(O)CC56CCCCC7[C@@H](C)[C@H](C[C@H]8[C@](C)(C(=O)OC)[C@H](O)CC[C@]78C)O[C@H]([C@@H](O)[C@H](O)O5)[C@H]6O)(CCCCC([C@@H]3C)[C@]2(C)CC[C@@H]1O)[C@H]4O", "note": "(some centres not stated)", "values": [{"measurement": "TGI", "setting": "[9]", "result": 0.182, "unit": "µM"}, {"measurement": "TGI", "setting": "[2]", "result": 1.2, "unit": "µM"}, {"measurement": "TGI", "setting": "[3]", "result": 1.73, "unit": "µM"}, {"measurement": "TGI", "setting": "[4]", "result": 1.89, "unit": "µM"}, {"measurement": "TGI", "setting": "[5]", "result": 0.286, "unit": "µM"}, {"measurement": "TGI", "setting": "[6]", "result": 0.373, "unit": "µM"}, {"measurement": "TGI", "setting": "[10]", "result": 0.212, "unit": "µM"}, {"measurement": "TGI", "setting": "[7]", "result": 10.4, "unit": "µM"}, {"measurement": "TGI", "setting": "[8]", "result": 0.253, "unit": "µM"}]}, {"smiles": "Clc1cccc2[nH]ncc12", "values": [{"measurement": "TGI", "setting": "[9]", "result": "> 100", "unit": "µM"}, {"measurement": "TGI", "setting": "[1]", "result": "> 100", "unit": "µM"}, {"measurement": "TGI", "setting": "[2]", "result": "> 100", "unit": "µM"}, {"measurement": "TGI", "setting": "[3]", "result": "> 100", "unit": "µM"}, {"measurement": "TGI", "setting": "[4]", "result": "> 100", "unit": "µM"}, {"measurement": "TGI", "setting": "[5]", "result": "> 100", "unit": "µM"}, {"measurement": "TGI", "setting": "[6]", "result": "> 100", "unit": "µM"}, {"measurement": "TGI", "setting": "[7]", "result": "> 100", "unit": "µM"}, {"measurement": "TGI", "setting": "[8]", "result": "> 100", "unit": "µM"}]}, {"smiles": "O=C1c2ccccc2-n2c1nc1ccc(Cl)cc1c2=O", "values": [{"measurement": "TGI", "setting": "[9]", "result": "> 100", "unit": "µM"}, {"measurement": "TGI", "setting": "[2]", "result": "> 100", "unit": "µM"}, {"measurement": "TGI", "setting": "[3]", "result": "> 100", "unit": "µM"}, {"measurement": "TGI", "setting": "[4]", "result": "> 100", "unit": "µM"}, {"measurement": "TGI", "setting": "[5]", "result": "> 100", "unit": "µM"}, {"measurement": "TGI", "setting": "[6]", "result": "> 100", "unit": "µM"}, {"measurement": "TGI", "setting": "[8]", "result": "> 100", "unit": "µM"}]}, {"smiles": "Cc1cc(OC(=O)Nc2ccc(Cl)cc2)ccc1C(=S)Nc1ccccc1", "values": [{"measurement": "TGI", "setting": "[9]", "result": "> 100", "unit": "µM"}, {"measurement": "TGI", "setting": "[1]", "result": "> 100", "unit": "µM"}, {"measurement": "TGI", "setting": "[2]", "result": "> 100", "unit": "µM"}, {"measurement": "TGI", "setting": "[3]", "result": "> 100", "unit": "µM"}, {"measurement": "TGI", "setting": "[5]", "result": "> 100", "unit": "µM"}, {"measurement": "TGI", "setting": "[6]", "result": "> 100", "unit": "µM"}, {"measurement": "TGI", "setting": "[10]", "result": "> 100", "unit": "µM"}, {"measurement": "TGI", "setting": "[7]", "result": "> 100", "unit": "µM"}, {"measurement": "TGI", "setting": "[8]", "result": "> 100", "unit": "µM"}]}, {"smiles": "CSC1(Cc2ccccn2)C(=O)Nc2cccc([N+](=O)[O-])c21", "note": "(configuration not stated)", "values": [{"measurement": "TGI", "setting": "[9]", "result": "> 100", "unit": "µM"}, {"measurement": "TGI", "setting": "[1]", "result": "> 100", "unit": "µM"}, {"measurement": "TGI", "setting": "[2]", "result": "> 100", "unit": "µM"}, {"measurement": "TGI", "setting": "[4]", "result": "> 100", "unit": "µM"}, {"measurement": "TGI", "setting": "[5]", "result": "> 100", "unit": "µM"}, {"measurement": "TGI", "setting": "[6]", "result": "> 100", "unit": "µM"}, {"measurement": "TGI", "setting": "[10]", "result": "> 100", "unit": "µM"}, {"measurement": "TGI", "setting": "[7]", "result": "> 100", "unit": "µM"}, {"measurement": "TGI", "setting": "[8]", "result": "> 100", "unit": "µM"}]}, {"smiles": "COc1ccc(/C=N/n2c(Cc3ccccc3)n[nH]c2=O)cc1", "values": [{"measurement": "TGI", "setting": "[9]", "result": "> 100", "unit": "µM"}, {"measurement": "TGI", "setting": "[1]", "result": 54.4, "unit": "µM"}, {"measurement": "TGI", "setting": "[3]", "result": "> 100", "unit": "µM"}, {"measurement": "TGI", "setting": "[4]", "result": "> 100", "unit": "µM"}, {"measurement": "TGI", "setting": "[5]", "result": "> 100", "unit": "µM"}, {"measurement": "TGI", "setting": "[6]", "result": "> 100", "unit": "µM"}, {"measurement": "TGI", "setting": "[10]", "result": "> 100", "unit": "µM"}, {"measurement": "TGI", "setting": "[7]", "result": "> 100", "unit": "µM"}]}, {"smiles": "Clc1cccc(C2SCc3nc4ccccc4n32)c1", "note": "(configuration not stated)", "values": [{"measurement": "TGI", "setting": "[9]", "result": "> 100", "unit": "µM"}, {"measurement": "TGI", "setting": "[2]", "result": 70, "unit": "µM"}, {"measurement": "TGI", "setting": "[3]", "result": "> 100", "unit": "µM"}, {"measurement": "TGI", "setting": "[6]", "result": "> 100", "unit": "µM"}, {"measurement": "TGI", "setting": "[10]", "result": "> 100", "unit": "µM"}, {"measurement": "TGI", "setting": "[7]", "result": 46.2, "unit": "µM"}, {"measurement": "TGI", "setting": "[8]", "result": 56.3, "unit": "µM"}]}, {"smiles": "CC(=O)Nc1cc(/C=C\\C(=O)N2CC(CCl)c3c2cc(N)c2ccccc32)n(C)n1", "note": "(configuration not stated)", "values": [{"measurement": "TGI", "setting": "[2]", "result": "> 100", "unit": "µM"}, {"measurement": "TGI", "setting": "[3]", "result": 0.0203, "unit": "µM"}, {"measurement": "GI50", "setting": "[5]", "result": 0.103, "unit": "µM"}, {"measurement": "GI50", "setting": "[6]", "result": 0.0216, "unit": "µM"}, {"measurement": "TGI", "setting": "[10]", "result": 0.211, "unit": "µM"}, {"measurement": "TGI", "setting": "[7]", "result": "0.0382 µM and 0.177 µM"}]}, {"smiles": "CO[C@]12C[C@@H](CNC(=O)c3cc(Br)c[nH]3)O[C@H]1NC(=O)N2", "values": [{"measurement": "TGI", "setting": "[9]", "result": "> 100", "unit": "µM"}, {"measurement": "TGI", "setting": "[1]", "result": "> 100", "unit": "µM"}, {"measurement": "TGI", "setting": "[2]", "result": "> 100", "unit": "µM"}, {"measurement": "TGI", "setting": "[3]", "result": "> 100", "unit": "µM"}, {"measurement": "TGI", "setting": "[4]", "result": "> 100", "unit": "µM"}, {"measurement": "TGI", "setting": "[5]", "result": "> 100", "unit": "µM"}, {"measurement": "TGI", "setting": "[6]", "result": "> 100", "unit": "µM"}, {"measurement": "TGI", "setting": "[10]", "result": "> 100", "unit": "µM"}, {"measurement": "TGI", "setting": "[7]", "result": "> 100", "unit": "µM"}]}, {"smiles": "Nc1c(C(=O)c2ccccc2)nnc2ccccc12", "values": [{"measurement": "TGI", "setting": "[9]", "result": "> 100", "unit": "µM"}, {"measurement": "TGI", "setting": "[2]", "result": "> 100", "unit": "µM"}, {"measurement": "TGI", "setting": "[3]", "result": "> 100", "unit": "µM"}, {"measurement": "TGI", "setting": "[4]", "result": 53.3, "unit": "µM"}, {"measurement": "TGI", "setting": "[5]", "result": 64.6, "unit": "µM"}, {"measurement": "TGI", "setting": "[6]", "result": "> 100", "unit": "µM"}, {"measurement": "TGI", "setting": "[10]", "result": "> 100", "unit": "µM"}, {"measurement": "TGI", "setting": "[7]", "result": "> 100", "unit": "µM"}, {"measurement": "TGI", "setting": "[8]", "result": "> 100", "unit": "µM"}]}, {"smiles": "CC1=NN(C(=O)c2ccc(C)cc2)C(=O)C1N=Nc1ccccc1C(=O)O", "note": "(configuration not stated)", "values": [{"measurement": "TGI", "setting": "[9]", "result": "> 100", "unit": "µM"}, {"measurement": "TGI", "setting": "[2]", "result": "> 100", "unit": "µM"}, {"measurement": "TGI", "setting": "[3]", "result": "> 100", "unit": "µM"}, {"measurement": "TGI", "setting": "[5]", "result": "> 100", "unit": "µM"}, {"measurement": "TGI", "setting": "[6]", "result": "> 100", "unit": "µM"}, {"measurement": "TGI", "setting": "[10]", "result": "> 100", "unit": "µM"}, {"measurement": "TGI", "setting": "[7]", "result": "> 100", "unit": "µM"}]}]}
